From patent publication US9988420B2, “Cytotoxic peptides and conjugates thereof” (priority 2013, dated 2018)

Assays:
CMK11-5 cells = experiment: In vitro cell killing assay of payloads (cell proliferation, Cell-Titer-Glo); format: cell-based; settings: Homo sapiens, 120 h; CMK-11-5 cells; Cell-Titer-Glo after five days
Jurkat cells = experiment: as above; format: cell-based; settings: Homo sapiens, 120 h, Cell-Titer-Glo after five days
HCC1954 cells = experiment: as above; format: cell-based; settings: Homo sapiens, 120 h; HCC1954 cells; Cell-Titer-Glo after five days; Table 2a; read-out: In vitro cell killing (IC50 (nM)) HCC1954
MDA-MB231 clone 16 cells = experiment: as above; format: cell-based; settings: Homo sapiens, 120 h; MDA-MB-231 clone 16 cells; Cell-Titer-Glo after five days
JimT1 cells = experiment: as above; format: cell-based; settings: Homo sapiens, JIMT-1, 120 h; JimT1 cells; Cell-Titer-Glo after five days; Table 2a; read-out: In vitro cell killing (IC50 (nM)) JimT1
H526 cells = experiment: as above; format: cell-based; settings: Homo sapiens, 120 h; NCI-H526 cells; Cell-Titer-Glo after five days; Table 2a; read-out: In vitro cell killing (IC50 (nM)) NCI-H526
MDA-MB231 clone 40 cells = experiment: as above; format: cell-based; settings: Homo sapiens, 120 h; MDA-MB-231 clone 40 cells; Cell-Titer-Glo after five days
KU812 cells = experiment: as above; format: cell-based; settings: Homo sapiens, 120 h, Cell-Titer-Glo after five days
[1] = acidic condition

SMILES	IC50 (CMK11-5 cells)	IC50 (Jurkat cells)	IC50 (HCC1954 cells)	IC50 (MDA-MB231 clone 16 cells)	IC50 (JimT1 cells)	IC50 (H526 cells)	IC50 (MDA-MB231 clone 40 cells)	IC50 (KU812 cells)	hydrolysis of the ester [1]
CC[C@H](C)[C@@H]([C@@H](CC(=O)N1CCC[C@H]1[C@H](OC)[C@@H](C)C(=O)N[C@H](C)[C@@H](O)c1ccccc1)OC)N(C)C(=O)[C@@H](NC(=O)[C@H]1N[C@@H]2CC[C@H]1C2)C(C)C [Compound 3, (1R,3S,4S)-N-((S)-1-(((3R,4S,5S)-1-((S)-2-((1R,2R)-3-(((1S,2R)-1-Hydroxy-1-phenylpropan-2-yl)amino)-1-methoxy-2-methyl-3-oxopropyl)pyrrolidin-1-yl)-3-methoxy-5-methyl-1-oxoheptan-4-yl)(methyl)amino)-3-methyl-1-oxobutan-2-yl)-2-azabicyclo[2.2.1]heptane-3-carboxamide]	14.7 nM	3.01 nM	10.8 nM	12.7 nM	42.1 nM	22 nM	23.9 nM	6.78 nM	–
CCCCOP(=O)(O)[C@H](Cc1ccccc1)NC(=O)[C@H](C)[C@@H](OC)[C@@H]1CCCN1C(=O)C[C@@H](OC)[C@H]([C@@H](C)CC)N(C)C(=O)[C@@H](NC(=O)[C@@H]1[C@H]2CC[C@H](C2)N1C(=O)CCCCCN1C(=O)C=CC1=O)C(C)C [Compound 29, Butyl hydrogen ((R)-1-((2R,3R)-3-((S)-1-((3R,4S,5S)-4-((S)-2-((1R,3S,4S)-2-(6-(2,5-dioxo-2,5-dihydro-1H-pyrrol-1-yl)hexanoyl)-2-azabicyclo[2.2.1]heptane-3-carboxamido)-N,3-dimethylbutanamido)-3-methoxy-5-methylheptanoyl)pyrrolidin-2-yl)-3-methoxy-2-methylpropanamido)-2-phenylethyl)phosphonate]	–	–	–	–	–	–	–	–	prone to hydrolysis in acidic condition
CC[C@H](C)[C@@H]([C@@H](CC(=O)N1CCC[C@H]1[C@H](OC)[C@@H](C)C(=O)N[C@@H](Cc1ccccc1)C(=O)NS(=O)(=O)CCCN=[N+]=[N-])OC)N(C)C(=O)[C@@H](NC(=O)[C@@H]1[C@H]2CC[C@H](C2)N1C)C(C)C [Compound 46, (1R,3S,4S)-N-((S)-1-(((3R,4S,5S)-1-((S)-2-((1R,2R)-3-(((S)-N-1-(3-Azidopropylsulfonamido)-1-oxo-3-phenylpropan-2-yl)amino)-1-methoxy-2-methyl-3-oxopropyl)pyrrolidin-1-yl)-3-methoxy-5-methyl-1-oxoheptan-4-yl)(methyl)amino)-3-methyl-1-oxobutan-2-yl)-2-methyl-2-azabicyclo[2.2.1]heptane-3-carboxamide]	10.4 nM	6.1 nM	2.3 nM	8.1 nM	14.2 nM	29.5 nM	11.7 nM	8.4 nM	–
